Data reported in US9278962B2 (Cytokinetics, Inc., priority 2011, dated 2016).

Tested on: rabbit skeletal myofibrils (approximately 90% fast fibers)
Assay: Activation of fast skeletal myofibrils (PUMA coupled-enzyme ATPase assay, AC1.4)
Assay type: biochemical
Conditions: concentration at which the compound increased enzymatic activity by 40%, calcium at pCa25
Procedure: Rabbit skeletal myofibrils were prepared based upon the method of Herrmann et al. (Biochem. 32(28):7255-7263(1993). Myofibrils were prepared from rabbit psoas muscle purchased from Pel-Freez Biologicals (Arkansas) within 2 days of ordering, stored on ice. Minced muscle was homogenized in 10 volumes of ice-cold “standard” buffer (50 mM Tris, pH 7.4, 0.1 M potassium acetate, 5 mM KCl, 2 mM DTT, 0.2 mM PMSF, 10 μM leupeptin, 5 μM pepstatin, and 0.5 mM sodium azide) containing 5 mM EDTA and 0.5% Triton X-100 using an Omni-Macro homogenizer. Myofibrils were recovered by low speed centrifugation (3000 rpm for 10 minutes) and washed 2 times in the Triton X-100 containing buffer to ensure removal of cellular membrane. Following the Triton washes, myofibrils were washed 3 times in “standard” buffer containing 2 mM magnesium acetate. A final wash in assay buffer (12 mM PIPES, pH 6.8, 60 mM KCl, 1 mM DTT) was performed and brought to 10% sucrose for flash freezing in liquid nitrogen and storage at −80° C.
Fast fiber activators were identified by measuring the enzymatic activity of muscle myofibril preparations using the proprietary PUMA™ (see, e.g., U.S. Pat. Nos. 6,410,254, 6,743,599, 7,202,051, and 7,378,254) assay system. Myofibril preparations consisted of rabbit skeletal muscle (approximately 90% fast fibers) that had been mechanically homogenized and washed with a detergent (triton X-100) to remove cellular membranes. This preparation retained all of the sarcomeric components in a native conformation and the enzymatic activity was still regulated by calcium. Compounds were tested using a myofibril suspension and a level of calcium sufficient to increase enzymatic activity of the myofibrils to 25% of their maximal rate (termed pCa25). Enzymatic activity was tracked via a pyruvate kinase and lactate dehydrogenase-coupled enzyme system. This assay regenerates myosin-produced ADP into ATP by oxidizing NADH, producing an absorbance change at 340 nm. The buffering system was 12 mM Pipes, 2 mM MgCl2, 1 mM DTT at pH 6.8 (PM12 buffer).
Using procedures similar to those described herein, utilizing reagents and intermediates commercially available (e.g., Sigma-Aldrich) or readily synthesized by one of skill in the art, the compounds in Table 2, Table 3, Table 4 and Table 5 were synthesized, characterized and tested. AC1.4 values were determined according to the procedure described in Example 6, and the reported median AC1.4 values are as follows: A=<1 uM; B=1-10 uM; C=10-20 uM; D=>20 uM.

Structure (SMILES) | Mean AC1.4 (Table 2) | further results
NC(=O)c1ccc2sc(NC[C@]3(c4ncccc4F)C[C@H](F)C3)nc2c1 [2-((3-fluoro-1-(3-fluoropyridin-2-yl)cyclobutyl)methylamino)benzo[d] thiazole-5-carboxamide] |  | Mean AC1.4 (Table 4): C (C=10-20 uM)
Cc1ccc(Cc2nsc(NCCc3c(Cl)cccc3Cl)n2)cc1 [[2-(2,6-dichlorophenyl)ethyl]{3-[(4-methylphenyl)methyl](1,2,4-thiadiazol-5-yl)}amine] | D (D=>20 uM) | 
CC(C)(Nc1nnc(-c2cc(C(N)=O)ccc2F)o1)c1ccc(F)cc1 [4-fluoro-3-(5-(2-(4-fluorophenyl)propan-2-ylamino)-1,3,4-oxadiazol-2-yl)benzamide] |  | Mean AC1.4 (Table 5): C (C=10-20 uM)
N#Cc1ccc(Cl)c(-c2nnc(NC[C@]3(c4ncccc4F)C[C@@H](F)C3)s2)c1 [4-chloro-3-(5-(((cis)-3-fluoro-1-(3-fluoropyridin-2-yl)cyclobutyl)methylamino)-1,3,4-thiadiazol-2-yl)benzonitrile] |  | Mean AC1.4 (Table 3): B (B=1-10 uM)
COc1ccc(C2(CNc3nc4ccc(C#N)cc4s3)CCC2)nc1 [2-((1-(5-methoxypyridin-2-yl)cyclobutyl)methylamino)benzo[d] thiazole-6-carbonitrile] |  | Mean AC1.4 (Table 4): D (D=>20 uM)
Clc1ccc(Cc2nsc(NCCc3cccc(Cl)c3)n2)cc1 [[2-(3-chlorophenyl)ethyl]{3-[(4-chlorophenyl)methyl](1,2,4-thiadiazol-5-yl)}amine] | D (D=>20 uM) | 
CC(C)CCNc1nc(Cc2ccc(F)cc2)ns1 [{3-[(4-fluorophenyl)methyl](1,2,4-thiadiazol-5-yl)}(3-methylbutyl)amine] | D (D=>20 uM) | 
CC(C)(O)c1ccc(F)c(-c2nnc(NC[C@]3(c4ncccc4F)C[C@H](F)C3)s2)c1 [2-(4-fluoro-3-(5-((3-fluoro-1-(3-fluoropyridin-2-yl)cyclobutyl)methylamino)-1,3,4-thiadiazol-2-yl)phenyl)propan-2-ol] |  | Mean AC1.4 (Table 3): B (B=1-10 uM)
COc1ccc2nc(NCC(C)(C)c3ccc(F)cc3)sc2c1 [N-(2-(4-fluorophenyl)-2-methylpropyl)-6-methoxybenzo[d]thiazol-2-amine] |  | Mean AC1.4 (Table 4): A (A=<1 uM)
CC(C)(CNc1nc2ccc(C(N)=O)cc2s1)c1ccc(F)cc1 [2-(2-(4-fluorophenyl)-2-methylpropylamino)benzo[d] thiazole-6-carboxamide] |  | Mean AC1.4 (Table 4): A (A=<1 uM)
N#Cc1ccc2nc(NCC3(c4ncccc4F)CCC3)sc2c1 [2-((1-(3-fluoropyridin-2-yl)cyclobutyl)methylamino)benzo[d] thiazole-6-carbonitrile] |  | Mean AC1.4 (Table 4): B (B=1-10 uM)
COc1ccc(C2(CNc3nc4ccc(Cl)cc4s3)CCC2)nc1 [6-chloro-N-((1-(5-methoxypyridin-2-yl)cyclobutyl)methyl)benzo[d] thiazol-2-amine] |  | Mean AC1.4 (Table 4): B (B=1-10 uM)
Cc1ccc(C#N)cc1-c1nnc(NC[C@]2(c3ncccc3F)C[C@H](F)C2)s1 [3-(5-((3-fluoro-1-(3-fluoropyridin-2-yl)cyclobutyl)methylamino)-1,3,4-thiadiazol-2-yl)-4-methylbenzonitrile] |  | Mean AC1.4 (Table 3): B (B=1-10 uM)
COc1cccc(Cc2nsc(NCCc3cc(F)cc(F)c3)n2)c1 [[2-(3,5-difluorophenyl)ethyl]{3-[(3-methoxyphenyl)methyl](1,2,4-thiadiazol-5-yl)}amine] | D (D=>20 uM) | 
Fc1ccc(Cc2nsc(NCc3ccc(Cl)c(Cl)c3)n2)cc1 [[(3,4-dichlorophenyl)methyl]{3-[(4-fluorophenyl)methyl])1,2,4-thiadiazol-5-yl)}amine] | D (D=>20 uM) | 
Cn1c(NC(C)(C)c2ccc(F)cc2)nnc1-c1cc(C(N)=O)ccc1F [4-fluoro-3-(5-(2-(4-fluorophenyl)propan-2-ylamino)-4-methyl-4H-1,2,4-triazol-3-yl)benzamide] |  | Mean AC1.4 (Table 5): D (D=>20 uM)
C[C@H](CNc1nc(-c2cncc(C(N)=O)c2)ns1)c1ccc(F)cc1 [5-(5-{[(2S)-2-(4-fluorophenyl)propyl]amino}-1,2,4-thiadiazol-3-yl)pyridine-3-carboxamide] | B (B=1-10 uM) | 
Cc1ccccc1-c1nnc(NCC2(c3ncccc3F)CCC2)s1 [N-((1-(3-fluoropyridin-2-yl)cyclobutyl)methyl)-5-o-tolyl-1,3,4-thiadiazol-2-amine] |  | Mean AC1.4 (Table 3): B (B=1-10 uM)

Second part, led by results:

Mean AC1.4 (Table 2) | Structure (SMILES) | further results
D (D=>20 uM) | COc1ccc(CCNc2nc(Cc3ccc(F)cc3)ns2)cc1 [{3-[(4-fluorophenyl)methyl](1,2,4-thiadiazol-5-yl)}[2-(4-methoxyphenyl)ethyl]amine] | 
B (B=1-10 uM) | COc1ccc(-c2nsc(NCC(C)(C)c3ccc(F)cc3)n2)cn1 [[2-(4-fluorophenyl)-2-methylpropyl][3-(6-methoxy(3-pyridyl))(1,2,4-thiadiazol-5-yl)]amine] | 
B (B=1-10 uM) | CC(C)(CNc1nc(-c2ccncc2)ns1)c1ccc(F)cc1 [[2-(4-fluorophenyl)-2-methylpropyl](3-(4-pyridyl)(1,2,4-thiadiazol-5-yl))amine] | 
B (B=1-10 uM) | CC(C)(CNc1nc(-c2ccccc2O)ns1)c1ccc(F)cc1 [2-(5-{[2-(4-fluorophenyl)-2-methylpropyl]amino}-1,2,4-thiadiazol-3-yl)phenol] | 
C (C=10-20 uM) | CN1CCN(CCc2nsc(NCC(C)(C)c3ccc(F)cc3)n2)CC1 [[2-(4-fluorophenyl)-2-methylpropyl]{3-[2-(4-methylpiperazinyl)ethyl](1,2,4-thiadiazol-5-yl)}amine] | 
B (B=1-10 uM) | CC(C)(CNc1nc(-c2ccc(CO)cc2)ns1)c1ccc(F)cc1 [[4-(5-{[2-(4-fluorophenyl)-2-methylpropyl]amino}-1,2,4-thiadiazol-3-yl)phenyl]methan-1-ol] | 
B (B=1-10 uM) | CC(C)(CNc1nc(CCCNS(C)(=O)=O)ns1)c1ccc(F)cc1 [[3-(5-{[2-(4-fluorophenyl)-2-methylpropyl]amino}(1,2,4-thiadiazol-3-yl))propyl](methylsulfonyl)amine] | 
D (D=>20 uM) | CC(C)(CNc1nc(N2CCOCC2)ns1)c1ccc(F)cc1 [[2-(4-fluorophenyl)-2-methylpropyl](3-morpholin-4-yl(1,2,4-thiadiazol-5-yl))amine] | 
A (A=<1 uM) | CC(C)(CNc1nc(Cc2ccc(F)cc2)ns1)c1ccc(Cl)cc1 [[2-(4-chlorophenyl)-2-methylpropyl]{3-[(4-fluorophenyl)methyl](1,2,4-thiadiazol-5-yl)}amine] | 
B (B=1-10 uM) | CNC(=O)c1ccc(-c2nsc(NCC(C)(C)c3ccc(F)cc3)n2)cn1 [[5-(5-{[2-(4-fluorophenyl)-2-methylpropyl]amino}(1,2,4-thiadiazol-3-yl))(2-pyridyl)]-N-methylcarboxamide] | 
A (A=<1 uM) | COc1cccc(Cc2nsc(NCC(C)(C)c3ccc(F)cc3)n2)c1 [[2-(4-fluorophenyl)-2-methylpropyl]{3-[(3-methoxyphenyl)methyl](1,2,4-thiadiazol-5-yl)}amine] | 
A (A=<1 uM) | COc1cccc(Cc2nsc(NCC(C)(C)c3ccc(Cl)cc3)n2)c1 [[2-(4-chlorophenyl)-2-methylpropyl]{3-[(3-methoxyphenyl)methyl](1,2,4-thiadiazol-5-yl)}amine] | 
B (B=1-10 uM) | C=Cc1nsc(NCC(C)(C)c2ccc(F)cc2)n1 [[2-(4-fluorophenyl)-2-methylpropyl](3-vinyl(1,2,4-thiadiazol-5-yl))amine] | 
B (B=1-10 uM) | COC(=O)NCCCc1nsc(NCC(C)(C)c2ccc(F)cc2)n1 [N-[3-(5-{[2-(4-fluorophenyl)-2-methylpropyl]amino}(1,2,4-thiadiazol-3-yl))propyl]methoxycarboxamide] | 
C (C=10-20 uM) | CC(C)Nc1nsc(NCC(C)(C)c2ccc(F)cc2)n1 [[2-(4-fluorophenyl)-2-methylpropyl]{3-[(methylethyl)amino](1,2,4-thiadiazol-5-yl)}amine] | 
C (C=10-20 uM) | CC(C)(CNc1nc(CCN2CCCC(O)C2)ns1)c1ccc(F)cc1 (centres unmarked) [1-[2-(5-{[2-(4-fluorophenyl)-2-methylpropyl]amino}-1,2,4-thiadiazol-3-yl)ethyl]piperidin-3-ol] | 
A (A=<1 uM) | CC(C)(CNc1nc(-c2ccc(F)c(C(N)=O)c2)ns1)c1ccc(F)cc1 [2-fluoro-5-(5-{[2-(4-fluorophenyl)-2-methylpropyl]amino}(1,2,4-thiadiazol-3-yl))benzamide] | 
